In patent US6060475A, “Substituted pyrazin-2-yl-sulphonamide-(3-pyridyl) compounds and uses thereof” (Zeneca Limited, priority 1995, dated 2000):

Key:
[1] = system: Human ETA or ETB receptors; test: Test A: inhibition of [125I]-Endothelin-1 binding to MEL cell membranes expressing recombinant receptor; settings: receptor sub-type (ETA or ETB) not given
Excerpt: Test A: The endothelin receptor antagonist activity of compounds of formula I may be assessed in vitro by their ability to inhibit binding of [^125 I]-Endothelin-1 to its receptors. Human ETA or ETB receptors (sub-types of the endothelin receptor) were expressed in Mouse Erythroleukemic Cells (MEL cells) by using standard molecular techniques (for example, as described by Sambrook J., Fritsch E. F. & Maniatis T. (1989) Molecular Cloning: A Laboratory Manual, 2nd Edition, Cold Spring Harbor Press, USA). cDNA sequences encoding the human ETA and ETB receptor (Hosoda K. et al (1991), FEBS Lett., 287, 23-26 and Sakamoto A. et al, (1991), Biochem. Biophys Res. Comm., 178, 656-663) are subcloned into pBluescript vector followed by insertion into the MEL cell expression vector pEV as described by Needham et al (1992), Nuc. Acids Res., 20, 997-1003. […]
[^125 I]-Endothelin-1 binding to MEL cell membranes was measured in incubation buffer containing 50 mM Tris HCl 1 mM CaCl2, 0.05% polyoxyethylenesorbitan monolaurate, 0.1% Bovine Serum Albumin (BSA), 0.02% sodium azide pH 7.4 at 30° C. after 180 minutes incubation. […] Nonspecific binding was measured in the presence of 100 nM unlabelled Endothelin-1. […] The filter discs were punched out and counted in a gamma counter. Compounds are tested in triplicate over a range of concentrations and IC50 (or pIC50) values calculated.

[2] = system: pressor response induced by intravenously-administered proendothelin-1; test: Test D: antagonism of pressor response to intravenous proendothelin-1 in conscious rat after oral dosing; assay type: in vivo; settings: rats, dosed orally at 3 mg/kg, determined one hour after administration, n=5, 30 mmHg change level
Excerpt: Test D: This in vivo test involves the measurement of the antagonist effect of the test compound against the pressor response induced by intravenously-administered proendothelin-1 in a conscious rat preparation.
Male rats (260-290 g) are anaesthetised with Saffan administered via the tail vein. The right jugular vein and carotid artery are isolated and catheters filled with heparin implanted. These are exteriorised at the back of the neck using a metal trochar and the neck incision closed with autoclips. Rats are housed individually with free access to food and water during the recovery phase. Later in the day, food is removed and the rats are fasted overnight with free access to water. The following day the rats are placed in perspex restraining tubes and the arterial catheter drained and connected to a pressure transducer for measurement of mean arterial pressure. Following a ten minute stabilization period, proendothelin-1 (usually 0.3-1.0 nmol kg^-1) is administered cumulatively until a pressor response of 30 mmHg is achieved. The animals are then returned to their cages and allowed to recover for 2 hours. The test compound is administered orally (by gavage) at a known time point during the recovery period. […] Endothelin receptor antagonism is quantified by calculating dose ratio shifts at the 30 mmHg change level.

pIC50 in Test A [1]: 8.6
Compound: COc1nc(C)cnc1NS(=O)(=O)c1cccnc1-c1ccc(OC(C)C)cc1 [Example 3, 2-(4-isopropoxyphenyl)-N-(3-methoxy-5-methylpyrazin-2-yl)pyridine-3-sulphonamide]
mean dose ratio shift on the pressor response to proendothelin-1 [2]: 2.93
